Consider 7 compounds from paper PMC10215404, “Effect of Indole-Containing Pyrazino[2,1-b]quinazoline-3,6-diones in the Virulence of Resistant Bacteria” (Antibiotics, 2023).

Converted amounts (≈) assume the structure as drawn. “And” between values parts separate entries of the source, which are not always exact repeats. Equal entries are not always repeated. Where two headings read alike, the source gives them in different places.

Experiment [1] has as its system E. coli AG100A. The experiment in a line: Real-time ethidium bromide accumulation assay (efflux pump inhibition). As to conditions: minute 60.
For experiment [2], the system named is E. coli AG100. The description is as above. As to conditions: minute 60.
The test system of experiment [3] is E. coli SA/2. Details: method as in PMID 34203998. The settings on record: cited from earlier work.
The subject of experiment [4] is MRSA 272123. The experiment in a line: Biofilm formation, crystal violet method. Format: cell-based, Staphylococcus aureus. The protocol:
(§1) The antibiofilm effect of the tested compounds was evaluated using the crystal violet method on E. coli AG100, E. coli AG100A, and MRSA 272123. […] CCCP was used as a positive control.
(§2) The biofilm-forming ability of the S. aureus strains was studied in 96-well microtiter plates using TSB broth in the presence of compounds. The biofilm-forming ability of the E. coli strains was studied in 96-well microtiter plates using LB broth in the presence of the compounds. […] The final volume was 200 μL in each well. The positive control was CCCP at 50 µM. Plates were incubated for 48 h at 30 °C with gentle shaking at 100 rpm. After the incubation period, the medium was removed and the plate was washed with water to remove unattached cells. A total of 200 μL CV (0.1% [v/v]) was added to each wells and incubated for 15 min at room temperature. CV was discarded from the wells and the plate was washed with water again. Then, 200 μL of 70% ethanol was added to each well and the biofilm formation was determined by measuring the OD at 600 nm using a Multiscan EX ELISA plate reader (Thermo Labsystems, Cheshire, WA, USA). The antibiofilm effect of the compounds was expressed as the percentage (%) decrease in biofilm formation.

Experiment [5] relates to S. aureus 272123. The experiment in a line: Real-time ethidium bromide accumulation assay (efflux pump inhibition). As to conditions: minute 60.
The test system of experiment [6] is E. coli AG100A. The experiment in a line: MIC determination, broth microdilution. Format: cell-based. The settings on record: Escherichia coli. The text has this:
(§3) Both reference and resistant strains used in this work were employed by our group for the screening of different families of compounds, such as xanthones and thioxanthones.
(Broth dilution looks for growth in wells or tubes with falling amounts of substance.)

For experiment [7], the system named is S. aureus MRSA 272123. In words: MIC determination, broth microdilution. The experiment is classed as cell-based. As to conditions: Staphylococcus aureus.
Text: as §3

The subject of experiment [8] is E. coli AG100. The experiment in a line: MIC determination, broth microdilution. Format: cell-based. As to conditions: Escherichia coli.
Text: as §3

Experiment [9] deals with E. coli AG100. The experiment in a line: Biofilm formation, crystal violet method. Format: cell-based, Escherichia coli. The settings on record: 50 μM. The protocol:
as §1, §2

In experiment [10] the test system is Staphylococcus aureus. The settings on record: cited from earlier work.
Experiment [11] concerns E. faecalis B3/101. The experiment in a line: Antibiotic potentiation with vancomycin, broth microdilution. The settings on record: E. faecalis B3/101; compound at 16 µg/mL.
The subject of experiment [12] is E. faecalis PSi/107. In words: MIC determination, broth microdilution. Format: cell-based. As to conditions: Enterococcus faecalis.
Text: as §3

Experiment [13] concerns S. aureus 66/1 (MRSA). The experiment in a line: MIC determination, broth microdilution. Format: cell-based. As to conditions: Staphylococcus aureus.
Text: as §3

Experiment [14] concerns E. faecalis B3/101 (VRE). In words: MIC determination, broth microdilution. The experiment is classed as cell-based. The settings on record: Enterococcus faecalis.
Text: as §3

Experiment [15] concerns E. faecalis PFi/2. In words: MIC determination, broth microdilution. Format: cell-based. The settings on record: Enterococcus faecalis.
Text: as §3

The subject of experiment [16] is S. aureus ATCC 29213. In words: MIC determination, broth microdilution. Format: cell-based. As to conditions: Staphylococcus aureus.
Text: as §3

Experiment [17] has as its system E. faecalis ATCC 29212. In words: MIC determination, broth microdilution. Format: cell-based. The settings on record: Enterococcus faecalis.
Text: as §3

The subject of experiment [18] is NIH/3T3 mouse fibroblast cell line. The experiment in a line: Cytotoxicity assay (MTT). Format: cell-based. As to conditions: NIH3T3, 24 h. The protocol: The effects of increasing concentrations of compounds on cell growth were tested in 96-well flat-bottomed microtiter plates. The compounds were diluted in a volume of 100 μL of medium. Afterwards, 1 × 10^4 cells in 100 μL of medium were added to each well, with the exception of the medium control. In the case of NIH/3T3 cells, the compounds were added after seeding the cells at 37 °C overnight. The plates were incubated at 37 °C for 24 h; after the incubation period, 20 μL of MTT solution (from a 5 mg/mL stock) was added to each well. After 4 h of incubation at 37 °C, 100 μL of SDS solution (10% in 0.01 M HCl) was added to each well and the plates were incubated at 37 °C overnight. Cell growth was determined by measuring the optical density (OD) at 540 nm (ref. 630 nm) with a Multiscan EX ELISA reader. Inhibition of cell growth was determined as IC50 values, defined as the inhibitory dose that reduced the growth of the cells exposed to the tested compounds by 50%. IC50 values and the SD of triplicate experiments were calculated by using GraphPad Prism software version 5.00 for Windows with a nonlinear regression curve fit (GraphPad Software, San Diego, CA, USA; www.graphpad.com, accessed on 14 July 2022). Doxorubicin (from a 2 mg/mL stock solution, Teva Pharmaceuticals) was used as the positive control.

The test system of experiment [19] is E. coli AG100, E. coli AG100A, and MRSA 272123. In words: Biofilm formation, crystal violet method (overall statement). The experiment is classed as cell-based. The protocol:
as §1, §2

The mark [20] stands for this setting: ATCC29213, value in parentheses.

Consider `N#CC(C#N)=NNc1cccc(Cl)c1` [CCCP, carbonyl cyanide m-chlorophenyl hydrazone, reference compound], for which the figures for the “RFI ± SD” value in [1] (compound at 50 μM) and in [2] (compound at 50 μM) were 1.13 ± 0.02 and 1.56 ± 0.01, respectively.
Broadly, the MIC is the smallest concentration in the dilution series that meets the test's criterion for growth inhibition. For the compound `CO/N=C(\C(=O)N[C@@H]1C(=O)N2C(C(=O)O)=C(COC(C)=O)CS[C@H]12)c1csc(N)n1` [CTX, cefotaxime], in experiment [3], the MIC was 512 µg/mL (≈ 1120 µM).
With `CC(C)C[C@@H]1NC(=O)[C@@H](Cc2c[nH]c3ccccc23)n2c1nc1c(Cl)cc(Cl)cc1c2=O` [Compound 4], the “decrease in biofilm formation” value in experiment [4] was 91%. The “RFI ± SD” value in [5] (compound at 50 μM) came to 1.13 ± 0.20; in experiment [1] (compound at 50 μM), 0.26 ± 0.07; in [2] (compound at 50 μM) it was 0.01 ± 0.02. Moreover, the MIC in experiment [6] is more than 100 µM; in experiment [7] it was more than 100 µM; in experiment [8], more than 100 µM; in experiment [10] (resistant strain of S. aureus), 8 µg/mL (≈ 17 µM); in [10] (sensitive strain of S. aureus), 4 µg/mL (≈ 8.52 µM). Moreover, the “antibiofilm effect (in words)” value in experiment [9] was “reduced the amount of biofilm”.
The IC50 is the midpoint of a concentration-inhibition curve. On to `CC(C)C[C@@H]1NC(=O)[C@@H](Cc2c[nH]c3ccccc23)n2c1nc1ccc(F)cc1c2=O` [Compound 12a, (1S,4R)-4-((1H-indol-3-yl)methyl)-8-fluoro-1-isobutyl-1,2-dihydro-6H-pyrazino[2,1-b]quinazoline-3,6(4H)-dione], for which, in [11], the “MIC of vancomycin in combination with the compound” value was 256 µg/mL. The “RFI ± SD” value is 0.63 ± 0.04 in experiment [5] (compound at 50 μM); 1.03 ± 0.02 in [5] (compound at 100 μM); 0.59 ± 0.03 in experiment [1] (compound at 100 μM); −0.17 ± 0.02 in experiment [2] (compound at 50 μM); 2.45 ± 0.26 in [2] (compound at 100 μM). For the same compound, the MIC is more than 100 µM in experiment [7]; more than 100 µM in [12]; 77 µM and 32 µg/mL in experiment [13]; 77 µM and 32 µg/mL in [14]; more than 100 µM in experiment [15]; more than 100 µM in [16] (ATCC29213). For the same compound, in experiment [17] (ATCC29212), the MIC was more than 100 µM. Also, the “antibiofilm effect (in words)” value in experiment [9] is given as “reduced the amount of biofilm”. In experiment [18], this compound displayed an IC50 of 52.2 ± 0.75 µM.
As to `CC(C)C[C@@H]1NC(=O)[C@@H](Cc2c[nH]c3ccccc23)n2c1nc1cc(F)ccc1c2=O` [Compound 12b, (1S,4R)-4-((1H-indol-3-yl)methyl)-9-fluoro-1-isobutyl-1,2-dihydro-6H-pyrazino[2,1-b]quinazoline-3,6(4H)-dione], the “RFI ± SD” value in [5] (compound at 50 μM) is 0.96 ± 0.07; in [1] (compound at 100 μM), 0.77 ± 0.17; in [2] (compound at 50 μM), −0.07 ± 0.06; in experiment [2] (compound at 100 μM), 1.47 ± 0.12. The MIC in experiment [7] was 100 µM and 41.8 µg/mL; in [12], more than 100 µM; in experiment [13], 77 µM and 32 µg/mL; in experiment [14] it was 38 µM and 16 µg/mL; in [15] it was more than 100 µM; in experiment [16] (ATCC29213), 77 µM. Further, the MIC in experiment [16] (setting [20]) is 32 µg/mL; in experiment [17] (ATCC29212) it was more than 100 µM. In experiment [18], this compound displayed an IC50 of 58 ± 1.58 µM.
For the compound `CC(C)C[C@@H]1NC(=O)[C@H](Cc2c[nH]c3cc(F)ccc23)n2c1nc1c(Cl)cc(Cl)cc1c2=O` [Compound 12c], the “RFI ± SD” value is 0.49 ± 0.01 in experiment [5] (compound at 6.25 μM (MIC/2)), 4.40 ± 1.78 in experiment [1] (compound at 100 μM), 0.24 ± 0.16 in [2] (compound at 50 μM) and 3.60 ± 0.01 in [2] (compound at 100 μM). Further, the MIC in experiment [7] is 12.5 µM and 6.1 µg/mL; in [12] it was more than 100 µM; in [13], 33 µM and 16 µg/mL; in [14], 33 µM and 16 µg/mL; in [15], more than 100 µM; in experiment [16] (ATCC29213) it was 33 µM. Also, the MIC was 16 µg/mL in [16] (setting [20]); 33 to 66 µM in [17] (ATCC29212); 16 to 32 µg/mL in experiment [17] (ATCC29212, value in parentheses). Half-maximal inhibition in experiment [18] (IC50) was put at 46.1 ± 0.66 µM. Moreover, in [19], the “antibiofilm capacity (in words)” value is given as “did not show any relevant activity”.
For the compound `CC(C)C[C@@H]1NC(=O)[C@@H](Cc2c[nH]c3ccccc23)n2c1nc1ccc(I)cc1c2=O` [Compound 13a], the “decrease in biofilm formation” value in [4] was found to be 91%. Further, the “RFI ± SD” value was 2.39 ± 0.09 in [5] (compound at 50 μM), 0.48 ± 0.58 in [1] (compound at 50 μM) and 0.38 ± 0.01 in experiment [2] (compound at 50 μM). Besides, the minimum inhibitory concentration (MIC) in experiment [7] is more than 100 µM.
